Test results from patent EP4610269A1, “UROKINASE PLASMINOGEN ACTIVATOR SURFACE RECEPTOR (UPAR) LIGANDS FOR DIAGNOSTIC OR THERAPEUTIC USE” (3B Pharmaceuticals GmbH, priority 2024, dated 2025).
Read-outs that look alike come from different tables or passages of the source. Where a SMILES comes first, the peptide text is derived from it. Bridges are numbered along the chain shown (N, C = ends). [ ]: non-standard residue; d: D form. The star is where a group is joined. DOTA(In) = O=C1CN2CCN3CCN(CC(=O)*)CCN(CC2)CC(=O)[O][In]([O]1)[O]C(=O)C3; DOTA(Lu) = O=C1CN2CCN3CCN(CC(=O)*)CCN(CC2)CC(=O)[O][Lu]([O]1)[O]C(=O)C3; CH3O(CH2CH2O)11CH2CH2CO = COCCOCCOCCOCCOCCOCCOCCOCCOCCOCCOCCOCCC(=O)*; DOTA = O=C(O)CN1CCN(CC(=O)O)CCN(CC(=O)*)CCN(CC(=O)O)CC1; Phe(3-Cl) = N[C@@H](Cc1cccc(Cl)c1)C(=O)O; Hyp = O=C(O)[C@@H]1C[C@@H](O)CN1; Pentanoyl(4-Me) = CC(C)CCC(=O)*; 2Thi = N[C@@H](Cc1cccs1)C(=O)O; Cit = NC(=O)NCCC[C@H](N)C(=O)O; αMeL = CC(C)C[C@](C)(N)C(=O)O; Pen = CC(C)(S)[C@H](N)C(=O)O; Phg = N[C@H](C(=O)O)c1ccccc1; Orn = NCCC[C@H](N)C(=O)O; Nva = CCC[C@H](N)C(=O)O; Pentanoyl = CCCCC(=O)*

Assays:
[1] = target: T1, uPAR-expressing HEC-265 human endometrial adenocarcinoma cells (Homo sapiens, UniProt Q03405); test: Competitive FACS binding assay; details: pIC50 category of FACS binding
T1 construct: Cell surface uPAR-expressing HEC-265 human endometrial adenocarcinoma cells; host or cells: HEC-265
In short: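 Competitive displacement of a 10 nM biotinylated peptide from HEC-265 cells (1 h, 4 °C, PBS/1% BSA), detected via APC-streptavidin by flow cytometry. pIC50 from four-parameter logistic fit of median fluorescence versus concentration.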

human uPAR (uPAR-Fc) = target: T2, human uPAR (uPAR-Fc) (Homo sapiens, UniProt Q03405); test: Surface plasmon resonance (SPR) assay, single cycle kinetics; type: binding; details: pKD category for uPAR SPR activity assay, uPAR-Fc on Protein A-Chip, 25°C; for Kd: read-out: pKD CAT (converted)
T2 construct: comprising amino acids Leu23-Arg303 according to UniProt entry Q03405.1; purchased R&D Systems 10378-UK-100
In short: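 uPAR-Fc (Leu23-Arg303 extracellular domains, human IgG1 Fc) captured on Protein A chip to ~2000 RU; single-cycle kinetics at 25°C in HEPES running buffer pH 7.4 with 0.1% DMSO. KD from double-referenced sensorgrams fitted to 1:1 Langmuir model, reported as pKD.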

T2 sequence (Q03405 23-303): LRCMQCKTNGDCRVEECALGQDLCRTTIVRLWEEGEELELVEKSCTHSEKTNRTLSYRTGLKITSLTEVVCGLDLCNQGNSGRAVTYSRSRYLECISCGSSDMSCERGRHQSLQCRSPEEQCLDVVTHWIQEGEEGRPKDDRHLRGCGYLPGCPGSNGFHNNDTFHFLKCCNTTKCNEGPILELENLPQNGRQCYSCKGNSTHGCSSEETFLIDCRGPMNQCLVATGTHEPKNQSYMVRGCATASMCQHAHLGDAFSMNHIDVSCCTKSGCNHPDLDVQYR
T1 sequence (Q03405 23-335): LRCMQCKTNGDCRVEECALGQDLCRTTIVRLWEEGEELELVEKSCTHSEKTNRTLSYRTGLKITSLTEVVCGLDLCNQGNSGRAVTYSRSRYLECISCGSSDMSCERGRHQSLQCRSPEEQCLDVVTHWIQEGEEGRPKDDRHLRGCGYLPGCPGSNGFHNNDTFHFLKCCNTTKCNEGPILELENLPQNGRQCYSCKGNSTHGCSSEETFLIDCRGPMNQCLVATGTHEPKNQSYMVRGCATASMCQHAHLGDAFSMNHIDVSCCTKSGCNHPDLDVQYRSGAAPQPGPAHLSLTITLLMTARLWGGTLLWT

Compound	IC50 [1] [µM]	Kd (human uPAR (uPAR-Fc)) [µM]	Kd (human uPAR (uPAR-Fc); single cycle kinetics) [µM]	pIC50 CAT [1]	pKD CAT (human uPAR (uPAR-Fc))
CC[C@H](C)[C@@H]1NC(=O)[C@@H](C)NC(=O)[C@@H]2CCCN2C(=O)[C@H](Cc2cccc(Cl)c2)NC(=O)[C@H](Cc2ccc(O)cc2)NC(=O)[C@H](CCC(N)=O)NC(=O)[C@H](CCCNC(N)=O)NC(=O)[C@@H](NC(=O)CCC(C)C)CSSC[C@@H](C(N)=O)NC(=O)[C@H](CC(C)C)NC1=O [UPAR-227, iHex-[Cys-Cit-Gln-Tyr-Mcf-Pro-ala-Ile-Leu-Cys]-NH2] ({Pentanoyl(4-Me)}-C[Cit]QY[Phe(3-Cl)]P[dA]ILC-NH2; disulfide 1-10)	≤ 0.01	< 0.00158	–	–	–
CC[C@H](C)[C@@H]1NC(=O)[C@@H](C)NC(=O)[C@@H]2CCCN2C(=O)[C@H](Cc2ccccc2)NC(=O)[C@H](Cc2ccc(O)cc2)NC(=O)[C@H](CCCCNC(=O)CN2CCN(CC(=O)O)CCN(CC(=O)O)CCN(CC(=O)O)CC2)NC(=O)[C@H](CCCNC(N)=O)NC(=O)[C@@H](NC(=O)CCC(C)C)CSSC[C@@H](C(N)=O)NC(=O)[C@H](CC(C)C)NC1=O [UPAR-256, iHex-[Cys-Cit-Lys(DOTA)-Tyr-Phe-Pro-ala-Ile-Leu-Cys]-NH2] ({Pentanoyl(4-Me)}-C[Cit]K(DOTA)YFP[dA]ILC-NH2; disulfide 1-10)	≤ 0.01	< 0.00158	–	–	–
CCCCC(=O)N[C@H]1CSSC[C@@H](C(N)=O)NC(=O)[C@H](CCC)NC(=O)[C@H]([C@@H](C)CC)NC(=O)[C@@H]2C[C@@H](O)CN2C(=O)[C@@H]2CCCN2C(=O)[C@H](Cc2cccs2)NC(=O)[C@H](Cc2ccc(O)cc2)NC(=O)[C@H](CCCCNC(=O)CN2CCN(CC(=O)O)CCN(CC(=O)O)CCN(CC(=O)O)CC2)NC(=O)[C@H](CCCNC(N)=O)NC1=O [UPAR-360, Pent-[Cys-Cit-Lys(DOTA)-Tyr-Thi-Pro-Hyp-Ile-Nva-Cys]-NH2] (Pentanoyl-C[Cit]K(DOTA)Y[2Thi]P[Hyp]I[Nva]C-NH2; disulfide 1-10)	≤ 0.01	–	< 0.00158	–	–
CCCCC(=O)N[C@H]1CSSC[C@@H](C(N)=O)NC(=O)[C@H](CCC)NC(=O)[C@H](c2ccccc2)NC(=O)[C@@H]2C[C@@H](O)CN2C(=O)[C@@H]2CCCN2C(=O)[C@H](Cc2ccccc2)NC(=O)[C@H](Cc2ccc(O)cc2)NC(=O)[C@H](CCC(N)=O)NC(=O)[C@H](CCCNC(=N)N)NC1=O [UPAR-437, Pent-[Cys-Arg-Gln-Tyr-Phe-Pro-Hyp-Phg-Nva-Cys]-NHz] (Pentanoyl-CRQYFP[Hyp][Phg][Nva]C-NH2; disulfide 1-10)	≤ 0.01	–	< 0.00158	–	–
Pent-[Cys-Asn-Lys(LuDOTA)-Tyr-Phe-Pro-Hyp-Ile-Nva-Cys]-NH2 (Pentanoyl-CNK(DOTA(Lu))YFP[Hyp]I[Nva]C-NH2; disulfide 1-10; not fully specified; also: Lu(III) complexed by DOTA) [UPAR-335]	–	–	–	A (pIC50 values ≥8.0)	A (pKD values ≥ 8.8)
Pent-[Cys-Orn(mPEG12)-Lys(InDOTA)-Tyr-Phe-Pro-Hyp-Ile-Nva-Cys]-NH2 (Pentanoyl-C[Orn](CH3O(CH2CH2O)11CH2CH2CO)K(DOTA(In))YFP[Hyp]I[Nva]C-NH2; disulfide 1-10; not fully specified; also: In(III) complexed by DOTA) [UPAR-311]	–	–	–	A (pIC50 values ≥8.0)	A (pKD values ≥ 8.8)
CCCCC(=O)N[C@H]1CSSC[C@@H](C(N)=O)NC(=O)[C@](C)(CC(C)C)NC(=O)[C@H]([C@@H](C)CC)NC(=O)[C@@H]2C[C@@H](O)CN2C(=O)[C@@H]2CCCN2C(=O)[C@H](Cc2ccccc2)NC(=O)[C@H](Cc2ccc(O)cc2)NC(=O)[C@H](CCC(N)=O)NC(=O)[C@H](CCCNC(=N)N)NC1=O [UPAR-156, Pent-[Cys-Arg-Gln-Tyr-Phe-Pro-Hyp-Ile-Aml-Cys]-NH2] (Pentanoyl-CRQYFP[Hyp]I[αMeL]C-NH2; disulfide 1-10)	0.0126 to 0.0316	0.00158 to 0.01	–	–	–
CCCCC(=O)N[C@H]1CSSC(C)(C)[C@@H](C(N)=O)NC(=O)[C@H](CCC)NC(=O)[C@H]([C@@H](C)CC)NC(=O)[C@@H]2C[C@@H](O)CN2C(=O)[C@@H]2CCCN2C(=O)[C@H](Cc2ccccc2)NC(=O)[C@H](Cc2ccc(O)cc2)NC(=O)[C@H](CCC(N)=O)NC(=O)[C@H](CCCNC(N)=O)NC1=O [UPAR-217, Pent-[Cys-Cit-Gln-Tyr-Phe-Pro-Hyp-Ile-Nva-Pen]-NH2] (Pentanoyl-C[Cit]QYFP[Hyp]I[Nva][Pen]-NH2; disulfide 1-10)	≤ 0.01	0.00158 to 0.01	–	–	–
